Reference: patent US10941157B2, “Pesticidal compositions and uses thereof” (Gilead Apollo, LLC, priority 2015, dated 2021)
Converted amounts (≈) assume the structure as drawn. Read-outs that look alike come from different tables or passages of the source.

How the values were obtained:
[1] = test system: Phytophthora capsici (Pc); test: In vitro pathogen growth inhibition assay, Pc; format: cell-based; conditions: 48 h, 48 hours vs 2% DMSO control
Outline: (§1)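 Spores of Dm, Fv and Pc were diluted in 17% V8 liquid medium; Rs used 1.5 mm mycelial plugs in ¼ PDB. Compounds from 2.5 mg/ml DMSO stocks were combined with inoculum, growth was read by OD600 at 24 and 48 h with blank subtraction, and the reported value is the concentration giving ≥90% inhibition.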

[2] = test system: Fusarium virguliforme (Fv); test: In vitro pathogen growth inhibition assay, Fv; format: cell-based; conditions: 48 hours vs 2% DMSO control
Outline: as §1

[3] = test system: Collectotrichum graminicola (Cg); test: In vitro pathogen growth inhibition assay, Cg; format: cell-based; conditions: 48 h, 48 hours vs 2% DMSO control
Outline: (§2)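 Spores in 17% V8 liquid medium, or 1.5 mm Rs mycelial plugs in ¼ PDB, incubated with compound; final concentration checked by OD600 for precipitation. OD readings at 24 and 48 h, blank-subtracted, plus visual ratings; value is concentration giving ≥90% growth inhibition.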

Rhizoctonia solani (Rs) = test: In vitro pathogen growth inhibition assay, Rs (mycelial plugs); format: cell-based; conditions: Rhizoctonia solani, 48 h, 48 hours vs 2% DMSO control
Outline: as §1

Diplodia maydis (Dm) = test: In vitro pathogen growth inhibition assay, Dm; format: cell-based; conditions: Stenocarpella maydis, 48 h, 48 hours vs 2% DMSO control
Outline: as §1

[4] = test system: Fusarium moniliforme (Fm); test: In vitro pathogen growth inhibition assay, Fm; format: cell-based; conditions: Fusarium verticillioides, 48 hours vs 2% DMSO control
Outline: as §2

Septoria tritici (St) = test: In vitro pathogen growth inhibition assay, St; format: cell-based; conditions: Zymoseptoria tritici, 48 h, 48 hours vs 2% DMSO control
Outline: as §2

Botrtyis cinerea (Bc) = test: In vitro pathogen growth inhibition assay, Bc; format: cell-based; conditions: 48 h, 48 hours vs 2% DMSO control
Outline: as §2

Puccinia triticina = test: Foliar protection test for wheat leaf rust control; format: in vivo; conditions: foliar application to wheat (Triticum aestivum cv. Winterhawk), evaluated 10 days later
[5] = test system: Mycosphaerella graminicola (synthetic Septoria tritici); test: Foliar protection test for wheat septoria leaf blotch control; format: in vivo; conditions: foliar spray on Triticum aestivum cv. WinterHawk, inoculated 1 hour after treatment, evaluated 16 days later
[6] = test system: Blumeria graminis f. sp. hordei; test: Foliar protection test for barley powdery mildew control; format: in vivo; conditions: foliar spray on Hordeum vulgare cv. Perry, inoculated 24 hours after treatment, evaluated 7 days later
Procedure: Plants (Hordeum vulgare cv. Perry) were grown for 6 days in 2-inch square pots containing Metromix 200 medium amended with fertilizer. […] After inoculation with the pathogen of Blumeria graminis f. sp. hordei, plants were kept at conditions of 20 to 22° C., 70% relative humidity, and 200 uM of light to facilitate infection and disease development. […] An atomizer was used for applying the solution onto both sides of the leaves until thoroughly wetted. […] At 24 hours after treatment, the plants were moved to a cooler chamber and inoculated by shaking well-colonized, untreated stock plants above the treated plants. This allowed producing a settling cloud of spores and resulting in uniform infection. Efficacy was evaluated in 7 days later by examining leaves for colonization and growth of mildew. Table 4 lists the results of barley powdery mildew control at a compound concentration of 10 ppm or lower.

[7] = concentration sufficient to ≥90% inhibition of growth, read-out: Compound Concentration (ppm) for ≥90% inhibition, Pc
[8] = concentration sufficient to ≥90% inhibition of growth, read-out: Compound Concentration (ppm) for ≥90% inhibition, Fv
[9] = concentration sufficient to ≥90% inhibition of growth, read-out: Compound Concentration (ppm) for ≥90% inhibition, Cg
[10] = concentration sufficient to ≥90% inhibition of growth, read-out: Compound Concentration (ppm) for ≥90% inhibition, Rs
[11] = concentration sufficient to ≥90% inhibition of growth, read-out: Compound Concentration (ppm) for ≥90% inhibition, Dm
[12] = concentration sufficient to ≥90% inhibition of growth, read-out: Compound Concentration (ppm) for ≥90% inhibition, Fm
[13] = concentration sufficient to ≥90% inhibition of growth, read-out: Compound Concentration (ppm) for ≥90% inhibition, St
[14] = concentration sufficient to ≥90% inhibition of growth, read-out: Compound Concentration (ppm) for ≥90% inhibition, Bc
[15] = ≥90% inhibition, read-out: Compound Concentration (ppm) sufficient for ≥90% inhibition of growth, Pc
[16] = ≥90% inhibition, read-out: Compound Concentration (ppm) sufficient for ≥90% inhibition of growth, Fv
[17] = ≥90% inhibition, read-out: Compound Concentration (ppm) sufficient for ≥90% inhibition of growth, Cg
[18] = ≥90% inhibition, mycelial plugs, read-out: Compound Concentration (ppm) sufficient for ≥90% inhibition of growth, Rs
[19] = ≥90% inhibition, read-out: Compound Concentration (ppm) sufficient for ≥90% inhibition of growth, Dm
[20] = ≥90% inhibition, read-out: Compound Concentration (ppm) sufficient for ≥90% inhibition of growth, Fm
[21] = ≥90% inhibition, read-out: Compound Concentration (ppm) sufficient for ≥90% inhibition of growth, St
[22] = ≥90% inhibition, read-out: Compound Concentration (ppm) sufficient for ≥90% inhibition of growth, Bc

Structure (SMILES) | IC90 [1, 7] [µg/mL] | IC90 [2, 8] [µg/mL] | IC90 [3, 9] [µg/mL] | IC90 (Rhizoctonia solani (Rs); [10]) [µg/mL] | IC90 (Diplodia maydis (Dm); [11]) [µg/mL] | IC90 [4, 12] [µg/mL] | IC90 (Septoria tritici (St); [13]) [µg/mL] | IC90 (Botrtyis cinerea (Bc); [14]) [µg/mL] | IC90 [1, 15] [µg/mL] | IC90 [2, 16] [µg/mL] | IC90 [3, 17] [µg/mL] | IC90 (Rhizoctonia solani (Rs); [18]) [µg/mL] | IC90 (Diplodia maydis (Dm); [19]) [µg/mL] | IC90 [4, 20] [µg/mL] | IC90 (Septoria tritici (St); [21]) [µg/mL] | IC90 (Botrtyis cinerea (Bc); [22]) [µg/mL] | Wheat Leaf Rust Control at a compound concentration of 10 ppm or lower (Puccinia triticina) | Septoria Leaf Blotch Control at a compound concentration of 25 ppm or lower [5] | Barley Powdery Mildew Control at a compound concentration of 10 ppm or lower [6]
COc1ccccc1[C@@H](O)Cn1c(=O)n(C(C)(C)C(=O)N2CCCC2)c(=O)c2c(C)c(-n3nccn3)sc21 [Compound I-215] | > 50 | 10 (≈ 18.6 µM) | 50 (≈ 92.8 µM) | 0.08 (≈ 0.149 µM) | > 50 | 10 (≈ 18.6 µM) | > 50 | 10 (≈ 18.6 µM) | – | – | – | – | – | – | – | – | – | – | –
COc1ccc(F)cc1[C@H](Cn1c(=O)n(C(C)(C)C(=O)NC(C)C)c(=O)c2c(C)c(-n3nccn3)sc21)OCCN(C)C [Compound I-173] | > 50 | > 50 | ≥ 50 | 10 (≈ 16.2 µM) | > 50 | 50 (≈ 81.2 µM) | > 50 | 50 (≈ 81.2 µM) | – | – | – | – | – | – | – | – | – | – | –
COCCCO[C@@H](Cn1c(=O)n(C(C)(C)C(=O)NC(C)C)c(=O)c2c(C)c(-n3nccn3)sc21)c1cc(F)ccc1OC [Compound I-084, (R)-2-(1-(2-(5-fluoro-2-methoxyphenyl)-2-(3-methoxypropoxy)ethyl)-5-methyl-2,4-dioxo-6-(2H-1,2,3-triazol-2-yl)-1,4-dihydrothieno[2,3-d]pyrimidin-3 (2H)-yl)-N-isopropyl-2-methylpropanamide] | – | – | – | – | – | – | – | – | > 50 | 0.08 (≈ 0.13 µM) | 0.4 (≈ 0.649 µM) | 0.4 (≈ 0.649 µM) | 0.08 (≈ 0.13 µM) | 0.08 (≈ 0.13 µM) | ≥ 10 | 0.4 (≈ 0.649 µM) | A (from 70% to 84% control of wheat leaf rust) | AA (≥85% control of wheat septoria leaf blotch) | AA (≥85% control of barley powdery mildew)
COc1ccc(F)cc1[C@H](Cn1c(=O)n(C(C)(C)C(=O)N2CCCC2)c(=O)c2c(C)c(-n3nccn3)sc21)OCC(C)(C)O [Compound I-073] | – | – | – | – | – | – | – | – | > 50 | 0.4 (≈ 0.636 µM) | 0.4 (≈ 0.636 µM) | ≥ 0.4 | 2 (≈ 3.18 µM) | 0.08 (≈ 0.127 µM) | ≥ 10 | 2 (≈ 3.18 µM) | – | – | –

More lines, main results first:

IC90 [1, 7] [µg/mL] | IC90 [2, 8] [µg/mL] | IC90 [3, 9] [µg/mL] | IC90 (Rhizoctonia solani (Rs); [10]) [µg/mL] | IC90 (Diplodia maydis (Dm); [11]) [µg/mL] | IC90 [4, 12] [µg/mL] | IC90 (Septoria tritici (St); [13]) [µg/mL] | IC90 (Botrtyis cinerea (Bc); [14]) [µg/mL] | IC90 [1, 15] [µg/mL] | IC90 [2, 16] [µg/mL] | IC90 [3, 17] [µg/mL] | IC90 (Rhizoctonia solani (Rs); [18]) [µg/mL] | IC90 (Diplodia maydis (Dm); [19]) [µg/mL] | IC90 [4, 20] [µg/mL] | IC90 (Septoria tritici (St); [21]) [µg/mL] | IC90 (Botrtyis cinerea (Bc); [22]) [µg/mL] | Structure (SMILES) | Wheat Leaf Rust Control at a compound concentration of 10 ppm or lower (Puccinia triticina) | Septoria Leaf Blotch Control at a compound concentration of 25 ppm or lower [5] | Barley Powdery Mildew Control at a compound concentration of 10 ppm or lower [6]
– | – | – | – | – | – | – | – | > 50 | ≥ 0.08 | 0.4 (≈ 0.701 µM) | 0.4 (≈ 0.701 µM) | 0.4 (≈ 0.701 µM) | 0.08 (≈ 0.14 µM) | 10 (≈ 17.5 µM) | 0.08 (≈ 0.14 µM) | COc1ccc(F)cc1[C@H](Cn1c(=O)n(CC(=O)N2CCCC2)c(=O)c2c(C)c(-n3nccn3)sc21)OC(C)C [Compound I-059] | – | – | –
– | – | – | – | – | – | – | – | > 50 | ≥ 2 | ≥ 2 | 10 (≈ 17 µM) | 2 (≈ 3.41 µM) | 0.4 (≈ 0.682 µM) | > 50 | 2 (≈ 3.41 µM) | COCCO[C@@H](Cn1c(=O)n(CC(=O)N2CCCC2)c(=O)c2c(C)c(-n3nccn3)sc21)c1cc(F)ccc1OC [Compound I-141] | – | – | –
– | – | – | – | – | – | – | – | > 50 | ≥ 0.08 | 0.08 (≈ 0.131 µM) | 0.08 (≈ 0.131 µM) | 0.08 (≈ 0.131 µM) | 0.08 (≈ 0.131 µM) | ≥ 2 | 0.08 (≈ 0.131 µM) | COc1ccc(F)cc1[C@H](Cn1c(=O)n(C(C)(C)C(=O)N2CCCCC2)c(=O)c2c(C)c(-n3nccn3)sc21)OC(C)C [Compound I-022] | – | – | –
